Results from US20250213700A1, “COMPOUNDS, COMPOSITIONS, AND METHODS FOR CELL-SPECIFIC PHARMACOLOGY” (Duke University, priority 2022, published 2025).

Columns and labels:
[1] = test system: +HTP somatostatin interneurons and -HTP neurons of V1 visual cortex; test: 2P calcium imaging of V1 visual responses after contralateral ventricle infusion, SOM-Cre mice; format: in vivo, mouse
Experimental: Top left: Mice expressing pan-neuronal GCaMP8s with SOM-specific ^+HTP. Window over V1. DART delivered via the contralateral ventricle. Bottom left: In-vivo and ex-vivo expression and dye capture. Right: Mice presented oriented visual gratings, 2P Ca^2+ imaging obtained before and 5-6 hr after infusion of 0.3 nmole Alexa647.1^DART.2+3 nmole YM90K.1^DART.2 (2 μL volume) into the contralateral ventricle.
Next, it was examined whether this strategy could deliver a pharmacologically active DART to genetically defined cells. A surgery was performed in which AAV DIO +HTPGPI was injected into the V1 visual cortex of SOM-Cre mice for cell-specific expression in somatostatin interneurons, along with a co-injected AAV-GCaMP8s virus for pan-neuronal neural activity monitoring. A cannula was implanted in the contralateral ventricle, and glass window over V1. Following surgical recovery, a mixture of YM90K.1DART.2+Alexa647.1DART.2 was infused. […] To test for pharmacological effects, 2P calcium imaging of +HTP and −HTP was performed while mice were presented with oriented gratings. A reduction in +HTP visual response was apparent 4 hours post DART infusion. This reduction persisted even after 24 hours post infusion.

GABAAR = test: VTA slice, evoked GABAAR IPSCs on midbrain dopamine neurons; format: cell-based, mouse; details: 300 nM (FIG. 4E)
Description: FIG. 4A-4F show the DART.2 platform can enable safe use of epileptogenic pharmaceuticals in awake behaving animals. (FIG. 4A) Validation of gabazine.1^DART.2 in cerebellar slice. Top: voltage-clamp schematic. Bottom: tonic GABAAR in granule cells expressing ^+HTP or ^ddHTP. […] Data are mean±SEM, cells normalized to baseline. (FIG. 4B) In vivo delivery of gabazine.1^DART.2 to cerebellar granule cells. Top right: schematic of experimental approach, GCaMP6f granule-cell activity obtained in the absence of sensory stimuli. Top left: example field of view, GCaMP6f signal averaged across trials. Bottom: example calcium traces (ΔF/F) in an awake ^+HTP mouse before (baseline) and after (1 μL of 1 μM gabazine.1^DART.2) infusion. (FIG. 4C) In vivo, 1 μL of 1 μM gabazine.1^DART.2 to ^+HTP mice. Color indicates ΔF/F, each row is one cell before (left) and after (right) gabazine.1^DART.2 infusion. Full dataset from 6 mice (n=1707 cells, p<0.0001, paired t-test, before vs after infusion). (FIG. 4D) In vivo, 1 μL of 1 μM gabazine.1^DART.2 to ^ddHTP mice. Format as in panel C. Full dataset from 4 mice (n=1084 cells, p=0.76, paired t-test, before vs after infusion). (FIG. 4E) Validation of gabazine.7^DART.2 in VTA slice. Top: evoked-IPSC configuration. […] Data are mean±SEM, cells normalized to baseline. Control experiments confirmed the GABAAR specificity of the manipulation. […] Data are mean±SEM, normalized to baseline speed of each animal.
Electrophysiology. Preparation of Brain slices: Mice (8-10 weeks) were injected AAV10 HaloTag™-dTomato to striatum or ventral tegmental area (VTA). After 3-5 weeks, mice were deeply anesthetized with isoflurane and euthanized by decapitation. Coronal brain slices ([…]) containing striatum or VTA were prepared by standard methods using a Vibratome (Leica, VT 1200S), in ice-cold high sucrose cutting solution containing (in mM) 220 sucrose, 3 KCl, 1.25 NaH2PO4, 25 NaHCO3, 12 MgSO4.7H2O, 10 glucose, and 0.2 CaCl2) bubbled with 95% O2 and 5% CO2. The slices were placed into modified artificial cerebrospinal fluid (aCSF) containing (in mM): 120 NaCl, 3.3 KCl, 1.23 NaH2PO4, 1 MgSO4, 2 CaCl2), 25 NaHCO3, and 10 glucose at pH 7.3, previously saturated with 95% O2 and 5% CO2. For recovery, the slices were incubated at 33° C. for 40-60 min in the bubbled ACSF solution and then allowed to cool to room temperature (22-24° C.) until the recordings were initiated.
Whole-cell patch-clamp recording: The brain slices or retinas were perfused with bubbled aCSF at 29-30° C. with a 2 ml/min flow rate. Recordings were made by whole cell patch recording techniques using a Multiclamp 700B amplifier (Molecular Devices, Axon Instruments Inc., Union City, CA). The signals were filtered at 10 KHz and acquired using Digitate 1440A and pClamp 10.7 (Molecular Devices). […]

[2] = 5-6 hr after infusion of 3 nmole with 0.3 nmole Alexa647.1DART.2

| SMILES | responses in +HTP SOM cells [1, 2] | responses in -HTP putative pyramidal cells [1, 2] | +HTP visual response ([1]; 4 hours post DART infusion) | -HTP cells visual response ([1]; 24 hours post infusion) | +HTP cells visual response relative to pre-DART ([1]; 24 hours post infusion, 50% contrast) | evoked GABAAR current (IPSCs), +HTP neurons (GABAAR) | evoked GABAAR current (IPSCs), ddHTP cells (GABAAR) | evoked GABAAR current (IPSCs), +HTP neurons (GABAAR; listed as gabazine.7^DART.2) | evoked GABAAR current (IPSCs), ddHTP cells (GABAAR; listed as gabazine.7^DART.2) |
| --- | --- | --- | --- | --- | --- | --- | --- | --- | --- |
| COc1cc(CCCCl)ccc1CCOCCNC(=O)c1ccc(CNC(=O)CCOCCOCCOCCOCCOCCOCCOCCOCCOCCOCCOCCOCCOCCOCCOCCOCCOCCOCCOCCOCCOCCOCCOCCOCCOCCOCCOCCOCCOCCOCCOCCOCCOCCOCCOCCOCCn2cc(COCCOCCOCCOCCOCCOCCNC(=O)CCCn3c(=O)c(=O)[nH]c4cc([N+](=O)[O-])c(-n5ccnc5)cc43)nn2)cc1 [YM90K.1DART.2] | reduced | unchanged or increased | reduction | no change or increase in visual response | decrease in visual response |  |  |  |  |
| COc1cc(CCCCl)ccc1CCOCCNC(=O)c1ccc(CNC(=O)CCOCCOCCOCCOCCOCCOCCOCCOCCOCCOCCOCCOCCOCCOCCOCCOCCOCCOCCOCCOCCOCCOCCOCCOCCOCCOCCOCCOCCOCCOCCOCCOCCOCCOCCOCCOCCn2cc(COCCOCCOCCOCCOCCOCCOCCCCCCOc3ccc(-c4nn(CCCCC(=O)O)c(=N)cc4C)cc3)nn2)cc1 [gabazine.7DART.2] |  |  |  |  |  | pronounced block of evoked GABAAR current | no measurable effect on ddHTP cells | nearly complete block of evoked IPSCs | no impact on ^ddHTP cells |
